Source: patent US10336763B1, “Crystal form B of ribociclib succinate” (Chunghwa Chemical Synthesis & Biotech Co. Ltd., priority 2018, dated 2019)

Experiment: crystalline stability in constant temperature and humidity chamber
Format: physicochemical
[1] = 25° C./75% RH, summary of 1 to 7 days
[2] = 80° C./75% RH, summary of 1 to 7 days
[3] = powder exposed to 25° C., 75%RH, 1 day
[4] = powder exposed to 25° C., 75%RH, 3 days
[5] = powder exposed to 25° C., 75%RH, 7 days
[6] = powder exposed to 80° C., 75%RH, 1 day
[7] = powder exposed to 80° C., 75%RH, 3 days
[8] = powder exposed to 80° C., 75%RH, 7 days

crystalline form (crystalline stability) [3]	crystalline form (crystalline stability) [4]	crystalline form (crystalline stability) [5]	crystalline form (crystalline stability) [6]	crystalline form (crystalline stability) [7]	crystalline form (crystalline stability) [8]	SMILES	crystalline form (crystalline stability) [1]	crystalline form (crystalline stability) [2]
Stayed as B	Stayed as B	Stayed as B	Stayed as B	Stayed as B	Stayed as B	CN(C)C(=O)c1cc2cnc(Nc3ccc(N4CCNCC4)cn3)nc2n1C1CCCC1.O=C(O)CCC(=O)O [Ribociclib succinate in crystalline form B] [butanedioicacid-7-cyclopentyl-N,N-dimethyl-2-[(5-piperazin-1-ylpyridin-2-yl)amino]pyrrolo[2,3-D]pyrimidine-6-carboxamide]	maintained its crystalline form and did not transform to other crystalline forms	maintained its crystalline form and did not transform to other crystalline forms
Stayed as A	Stayed as A	Stayed as A	Transformed from A to B	Transformed from A to B	Transformed from A to B	CN(C)C(=O)c1cc2cnc(Nc3ccc(N4CCNCC4)cn3)nc2n1C1CCCC1.O=C(O)CCC(=O)O [Ribociclib succinate in crystalline form A] [butanedioicacid-7-cyclopentyl-N,N-dimethyl-2-[(5-piperazin-1-ylpyridin-2-yl)amino]pyrrolo[2,3-D]pyrimidine-6-carboxamide]	maintained its crystalline form	transformed from crystalline form A to crystalline form B
